This note sets out measurements from the NIST ThermoML archive (doi:10.1021/je8002964).

For the data set the following is noted: 298.15 K; 101.33 kPa; Liquid.

Each structure is given as a SMILES string. ± gives the expanded uncertainty stated by the source.

For the molecule `OCC(F)(F)F` [2,2,2-trifluoroethanol], the mass density stood at 1382.4 ± 1.2 kg/m3.
The figure for `C1CCCCC1` [cyclohexane] is 774 ± 0.3 kg/m3.
Turning to `CCCCCCC` [heptane], the mass density is reported as 680 ± 0.7 kg/m3.
As for `CO` [methanol], the mass density was found to be 787 ± 0.4 kg/m3.
Then `CC(C)O` [propan-2-ol], with 781.4 ± 0.5 kg/m3.

Broadly, the mass density is mass per unit of volume.
